The results in this text go back to patent publication US10624948B2, “Use of cell-permeable peptide inhibitors of the JNK signal transduction pathway for the treatment of various diseases” (Xigen Inflammation Ltd., priority 2013, dated 2020).

Read-outs that look alike come from different tables or passages of the source.

Data set [1] can be described thus: Phase I pharmacokinetics, single intravenous infusion. To be noted: human, in vivo. The method, then: The primary objective of the study was to assess the safety and tolerability of XG-102 following intravenous (iv) infusion of single escalating doses of XG-102 to healthy male volunteers. The secondary objective of the study was to assess the pharmacokinetics of XG-102 following iv infusion of single escalating doses of XG-102 to healthy male volunteers. Doses were administered as a 60 minute iv infusion. For control purposes, placebo iv infusion was administered to control subjects. This was a single-centre, randomized, double blind, placebo controlled, ascending single dose, sequential group study. […] Screening was performed in the 3-week period prior to dosing. Dosing occurred on Day 0 for each subject. […] Data for all subjects were included in the safety analyses; data for all subjects who received XG-102 were included in the pharmacokinetic analyses.

Data set [2] deals with Brown Norway rats, STZ-induced diabetic retinopathy. Nature of the data set: Diabetic retinopathy prevention study in STZ treated rat (IVT). It is filed as in vivo. The method, then: The objective of this study was to determine the ability of XG-102 to prevent diabetic retinopathy when administered by intravitreal injections to streptozotocin (STZ)-treated (hyperglycemic) rats.
All animals from Groups 2, 3, 4 received a 55 mg/kg intravenous (IV) dose of STZ on Day −7.
Test items or reference item were administered by intravitreal injection to the left and right eyes of each animal on Days 1, 8 and 15 as indicated in the Experimental Design table. The animals were anesthetized (isoflurane) for the dose administration, which was performed by a board-certified veterinary ophthalmologist. Topical antibiotics (gentamicin ophthalmic solution) were applied to both eyes twice on the day before treatment, following the injection and at least once on the day following the injection. Prior to dosing, mydriatic drops (1% tropicamide and/or 2.5% phenylephrine) were applied to each eye (further applications were performed when considered appropriate by the veterinary ophthalmologist). During dosing, animals were maintained under anesthesia with isoflurane/oxygen gas. The conjunctivae were flushed with 0.9% Sodium Chloride for Injection USP. A 10 μl Hamilton syringe with 32-gauge, ½-inch needle was used for each intravitreal injection (one syringe/group/treatment). The dose volume was 5 μL/eye. Both eyes were examined by slit-lamp biomicroscopy and/or indirect ophthalmoscopy immediately following each treatment to document any abnormalities (especially to the lens, vitreous and retina) caused by the administration procedure. […]
The in-life procedures, observations, and measurements listed below were performed for study animals. […] Food consumption was quantitatively measured weekly starting during the last week of the pretreatment period. […] Intraocular pressure was measured following each ophthalmology examination, once prestudy and on Day 22, using a TonoVet™ rebound tonometer. The pre-treatment tonometry readings were performed at the same times as anticipated for the final measurements to reduce diurnal variability. […]

The test system of data set [3] is Sprague-Dawley albino rats, light-induced photoreceptor cell death. It is filed as in vivo. Here is the method: The aim of this study was to investigate the dose effect of XG-102 on light-induced photoreceptor cell death.
Test item (XG-102: 30 mg/ml, 3 mg/ml, and 0.3 mg/ml) and vehicle (0.9% NaCl) were administered by intravitreal injection in right eyes the day before induction. The reference (Phenyl-N-test-Butylnitrone (PBN) (50 mg/kg)) and vehicle were intraperitoneally injected 30 min before induction then, 3 times during 12 hours of light exposition, then once after induction. Animals were placed in constant light (7000 lux) for 24 h. Electroretinograms (ERG) were recorded before light treatment and on days 9, 16 and 23 after induction. Eyes were then taken for histology and outer nuclear layer (ONL) thickness assessment. The table below summarizes the allocation of animals in treatment groups:
For the intravitreal injection animals were anesthetized by intramuscular injection of a mixture of xylazine/ketamine. Test item (5 μl) and vehicle (5 μl) were injected in the right eye. The injection was performed under an operating microscope in the supratemporal area at pars plana using a 33G-needle mounted on a 50 μl Hamilton. The filled syringe was mounted into the UltraMicroPump III to achieve accurate injection in microliter range. Reference and vehicle were injected intraperitoneally at a dose volume of 2.5 ml/kg using a 30G-needle mounted on a 1 ml-syringe.
Light Exposure: The rats that had been dark-adapted overnight were exposed for 24 hours to a continuous white fluorescent light (7000 lx) in clear plastic cages. Each cage contained one rat. After exposure, the rats returned to rearing cyclic light conditions.
ERG was recorded before induction and 7, 14 and 21 days after cessation of exposure (Days 9, 16 and 23) on right eyes of dark-adapted and anesthezied animals. The latency times (for a- and b-wave) and the a-wave and b-wave amplitudes were measured for each ERG; the latency times were expressed as millisecond and the a-wave and b-wave as a percentage of the baseline value obtained before light exposure. 15 min before measurement 10 μl Mydriaticum® (0.5% tropicamide) were instilled for pupillary dilatation.
Measurement of the ONL Thickness: After ERG testing, animal was euthanized by an overdose of pentobarbital and the right eyes were enucleated, fixed and embedded in paraffin. Sections (5 μm thick) were performed along the vertical meridian and stained with Trichrome-Masson. The vertical meridian included the optic nerve.

The test system of data set [4] is Primary cultured macrophages. It is filed as cell-based. The method, then:
FIG. 24 Primary cultured macrophages were incubated with XG-102 (SEQ ID NO: 11) and extensively washed.

The test system of the next data set is db/db mice. The note with it: mouse, in vivo, sc, 10 mg/kg.

From the text for db/db mice: i) Animals • A total of twenty (20) male db/db mice (8 weeks old) were obtained from Charles River (Germany). Upon arrival, animals were group housed (n=6-7/group) and offered regular rodent chow (Altromin standard #1324 chow; C. Petersen, Ringsted, Denmark) and water ad libitum unless otherwise stated. The mice were housed under a 12:12 L/D cycle (lights on at 4:00 and lights off at 16:00) and in temperature and humidity controlled rooms.
ii) Groups and Randomization • On day −4, mice were randomized according to blood glucose level (fasted; blood glucose measured on Biosen S line analyzer (EKF diagnostic, Germany) to participate in one of the following drug treatment groups (n=6): • 1) Vehicle control, S.C. (physiological saline) • 2) XG-102 (SEQ ID NO: 11); 1 mg/kg; s.c. • 3) XG-102 (SEQ ID NO: 11); 10 mg/kg; s.c • All doses listed were calculated for the free-base. […] All compounds were administered sub-cutaneously (s.c.) in a volume of 3 ml/kg. The formulation instructions for vehicle control and XG-102 (SEQ ID NO: 11) were as follows: • First, XG-102 (SEQ ID NO: 11) was dissolved in the vehicle. […]
i) Blood Glucose • Blood glucose was measured from 7 hour fasted animals 6 hours post dosing by collection of 10 μl blood samples from the tail-vein in hematocrite tubes and subsequent analysis on a Biosen s-line analyzer (EKE-diagnostic; Germany).

For the compound `CC(C)C[C@@H](NC(=O)[C@@H](Cc1ccccc1)NC(=O)[C@H]1CCCN1C(=O)[C@@H](CCC(N)=O)NC(=O)[C@H](NC(=O)[C@H]1CCCN1C(=O)[C@@H](CCCNC(=N)N)NC(=O)[C@@H](CO)NC(=O)[C@@H](CCC(N)=O)NC(=O)[C@H](N)CC(=O)O)C(C)C)C(=O)N[C@H](CC(N)=O)C(=O)N[C@H](CC(C)C)C(=O)N[C@@H](C(=O)N[C@@H](C(=O)N1CCC[C@@H]1C(=O)N[C@H](CCCNC(=N)N)C(=O)N[C@H](CCCCN)C(=O)N1CCC[C@@H]1C(=O)N[C@H](CCCNC(=N)N)C(=O)N1CCC[C@@H]1C(=O)N1CCC[C@@H]1C(=O)N[C@H](CCCNC(=N)N)C(=O)N[C@H](CCCNC(=N)N)C(=O)N[C@H](CCCNC(=N)N)C(=O)N[C@H](CCC(N)=O)C(=O)N[C@H](CCCNC(=N)N)C(=O)N[C@H](CCCNC(=N)N)C(=O)N[C@H](CCCCN)C(=O)N[C@H](CCCCN)C(=O)N[C@H](CCCNC(=N)N)C(=O)NCC(=O)O)[C@H](C)O)[C@H](C)O` [XG-102], the AUCextrap in data set [1] (10 ug/kg) came to 34.1%; in data set [1] (40 ug/kg), 6.7%; in data set [1] (80 ug/kg), 2.9%. The mortality result in data set [2] (IVT Days 1, 8, 15) was “no XG-102-related deaths”. In addition, the “ERG wave amplitude, overall” value in data set [2] (rat, in vivo) was “tendency for XG-102 to reverse the decrease of the wave amplitude”. In addition, the ERG latencies entry in data set [2] (≤2 μg/eye) was “comparable and remained within the control and/or pretreatment variation”. Besides, the “ERG A-wave amplitude, percent of the baseline, Mean ± SD” value is 41.8 ± 23.6% in data set [3] (XG-102 ivt 15 μg/eye, Day 23); 23.6 ± 25.3% in data set [3] (XG-102 ivt 150 μg/eye, Day 9); 24.1 ± 28.1% in data set [3] (XG-102 ivt 150 μg/eye, Day 16); 23.7 ± 27.2% in data set [3] (XG-102 ivt 150 μg/eye, Day 23). The “ERG B-wave amplitude, percent of the baseline, Mean ± SD” value in data set [3] (XG-102 ivt 15 μg/eye, Day 23) was 56.5 ± 29.8%; in data set [3] (XG-102 ivt 150 μg/eye, Day 9), 31.9 ± 42.6%; in data set [3] (XG-102 ivt 150 μg/eye, Day 16) it was 38.9 ± 51.5%; in data set [3] (XG-102 ivt 150 μg/eye, Day 23), 37.1 ± 54.4%. The “incorporation into primary macrophages” value in data set [4] is recorded as “strongly incorporated into primary macrophages”. The “reaction at s.c. injection site” value with db/db mice is recorded as “nodular fibrosis was observed in the subcutaneous tissue”.
